# Legend:
# E. coli SHV-5 = assay: Synergy MIC, inhibitor at 4 μg/mL (Example 4); assay type: cell-based; conditions: SHV-5, class A, inhibitor constant 4 μg/mL
# [1] = system: Pseudomonas aeruginosa NPS-1; assay: MIC, characterised β-lactamase producing strain (Example 5, Tables 5-7); assay type: cell-based
# Protocol: (§1) The MIC experiments were performed in duplicate in 96-well microtiter plates using CAMHB. Serial twofold dilutions of each antibiotic either alone or in combination with constant concentration ratio of a β-lactamase inhibitor (2:1) were prepared in CAMHB. The bacterial suspension with final inoculum 10^5 CFU/mL was transferred to the test medium containing the antibacterial substances. In each well of a 96-well microtiter plate was combined 50 μL of bacterial inoculum, 50 μL of antibiotic dilutions (or media for determination of the MIC of the antibiotic in the absence of test compound). Each plate included 4 wells with no bacterial inoculum (negative control) and 4 wells with no test compound and no antibiotic (positive control). The plates were incubated at 35° C. for 24 h. Purity check and colony counts on each inoculum suspension was performed to ensure that the final inoculum concentration routinely obtained closely approximates 5×10^5 CFU/mL. In addition the assay is routinely monitored by testing standard antibiotics and ensuring that MIC values are within the recommended ranges for the respective strains.
# (§2) This test permits comparisons to be made between bacterial growth in the presence of antibiotic alone and bacterial growth in the presence of both an antibiotic and a novel (test) compound.
# [2] = system: Klebsiella pneumoniae TEM-30; assay: as above; assay type: cell-based
# Protocol: as §1, §2
# Escherichia coli OXA-4 = assay: as above; assay type: cell-based
# Protocol: as §1, §2
# Escherichia coli TEM-32 = assay: as above; assay type: cell-based
# Protocol: as §1, §2
# [3] = system: Aeromonas hydrophila AER-1; assay: as above; assay type: cell-based
# Protocol: as §1, §2
# [4] = system: Klebsiella pneumoniae TEM-1, SHV-5; assay: as above; assay type: cell-based
# Protocol: as §1, §2
# Escherichia coli TEM-34 = assay: as above; assay type: cell-based
# Protocol: as §1, §2
# Salmonella spp. DHA-1 = assay: as above; assay type: cell-based
# Protocol: as §1, §2
# Escherichia coli TEM-7 = assay: as above; assay type: cell-based
# Protocol: as §1, with “Serial twofold dilutions of each antibiotic either alone or in combination with constant concentration ratio of a β-lactamase inhibitor (2:1) were prepared in CAMHB.” left out
# as §2
# Escherichia coli TEM-20 = assay: as above; assay type: cell-based
# Protocol: as §1, with “Serial twofold dilutions of each antibiotic either alone or in combination with constant concentration ratio of a β-lactamase inhibitor (2:1) were prepared in CAMHB.” left out
# as §2
# [5] = system: Klebsiella pneumoniae TEM-1, SHV; assay: as above; assay type: cell-based
# Protocol: as §1, with “Serial twofold dilutions of each antibiotic either alone or in combination with constant concentration ratio of a β-lactamase inhibitor (2:1) were prepared in CAMHB.” left out
# as §2
# Escherichia coli TEM-50 = assay: as above; assay type: cell-based
# Protocol: as §1, with “Serial twofold dilutions of each antibiotic either alone or in combination with constant concentration ratio of a β-lactamase inhibitor (2:1) were prepared in CAMHB.” left out
# as §2
# Escherichia coli TEM-6 = assay: as above; assay type: cell-based
# Protocol: as §1, with “Serial twofold dilutions of each antibiotic either alone or in combination with constant concentration ratio of a β-lactamase inhibitor (2:1) were prepared in CAMHB.” left out
# as §2
# Proteus mirabilis TEM-52 = assay: as above; assay type: cell-based
# Protocol: as §1, with “Serial twofold dilutions of each antibiotic either alone or in combination with constant concentration ratio of a β-lactamase inhibitor (2:1) were prepared in CAMHB.” left out
# as §2
# [6] = system: Pseudomonas aeruginosa OXA-10; assay: as above; assay type: cell-based
# Protocol: as §1, with “Serial twofold dilutions of each antibiotic either alone or in combination with constant concentration ratio of a β-lactamase inhibitor (2:1) were prepared in CAMHB.” left out
# as §2
# Escherichia coli SHV-2 = assay: as above; assay type: cell-based
# Protocol: as §1, with “Serial twofold dilutions of each antibiotic either alone or in combination with constant concentration ratio of a β-lactamase inhibitor (2:1) were prepared in CAMHB.” left out
# as §2
# [7] = system: Klebsiella pneumoniae LAT-1; assay: as above; assay type: cell-based
# Protocol: as §1, with “Serial twofold dilutions of each antibiotic either alone or in combination with constant concentration ratio of a β-lactamase inhibitor (2:1) were prepared in CAMHB.” left out
# as §2
# [8] = system: Pseudomonas aeruginosa PSE-1; assay: as above; assay type: cell-based
# Protocol: as §1, with “Serial twofold dilutions of each antibiotic either alone or in combination with constant concentration ratio of a β-lactamase inhibitor (2:1) were prepared in CAMHB.” left out
# as §2
# [9] = system: Pseudomonas aeruginosa LCR-1; assay: as above; assay type: cell-based
# Protocol: as §1, with “Serial twofold dilutions of each antibiotic either alone or in combination with constant concentration ratio of a β-lactamase inhibitor (2:1) were prepared in CAMHB.” left out
# as §2
# [10] = system: Klebsiella pneumoniae TEM-31; assay: as above; assay type: cell-based
# Protocol: as §1, with “Serial twofold dilutions of each antibiotic either alone or in combination with constant concentration ratio of a β-lactamase inhibitor (2:1) were prepared in CAMHB.” left out
# as §2
# [11] = system: Klebsiella pneumoniae ATCC 700603; assay: MIC broth microdilution (Example 2); conditions: Klebsiella pneumoniae ATCC 700603 producing SHV-18
# [12] = system: Klebsiella oxytoca ATCC 51983; assay: MIC broth microdilution (Example 2); conditions: ATCC51983
# Escherichia coli OXA-1 = assay: MIC, characterised β-lactamase producing strain (Example 5, Tables 5-7); assay type: cell-based
# Protocol: as §1, with “Serial twofold dilutions of each antibiotic either alone or in combination with constant concentration ratio of a β-lactamase inhibitor (2:1) were prepared in CAMHB.” left out
# as §2
# [13] = Table 6, LK-157 at constant 4 μg/mL in combination
# [14] = Table 7, combination at constant concentration ratio (2:1)
structure (smiles),measurement,setting,value
CO/N=C(\C(=O)N[C@@H]1C(=O)N2C(C(=O)[O-])=C(C[N+]3(C)CCCC3)CS[C@H]12)c1csc(N)n1 [cefepime],MIC,E. coli SHV-5,25.6 µg/mL
same,MIC,"[1]; Pseudomonas aeruginosa NPS-1, functional group 2a, LK-157 in combination constant 4 μg/mL",8 µg/mL
same,MIC,"[2]; Klebsiella pneumoniae TEM-30, functional group 2br, LK-157 in combination constant 4 μg/mL",0.125 µg/mL
same,MIC,"Escherichia coli OXA-4; Escherichia coli OXA-4, functional group 2d, LK-157 in combination constant 4 μg/mL",0.5 µg/mL
same,MIC,"Escherichia coli TEM-32; Escherichia coli TEM-32, functional group 2br, LK-157 in combination constant 4 μg/mL",0.125 µg/mL
same,MIC,"[3]; Aeromonas hydrophila AER-1, functional group 2c, LK-157 in combination constant 4 μg/mL",0.5 µg/mL
same,MIC,"[4]; Klebsiella pneumoniae TEM-1, SHV-5, functional group 2b, 2e, LK-157 in combination constant 4 μg/mL",16 µg/mL
same,MIC,"Escherichia coli TEM-34; Escherichia coli TEM-34, functional group 2br, LK-157 in combination constant 4 μg/mL",0.063 µg/mL
same,MIC,"Salmonella spp. DHA-1; Salmonella spp. DHA-1, functional group 1, LK-157 in combination constant 4 μg/mL",1 µg/mL
same,MIC,"Escherichia coli TEM-7; Escherichia coli TEM-7, functional group 2be, LK-157 in combination constant 4 μg/mL",16 µg/mL
same,MIC,"Escherichia coli TEM-20; Escherichia coli TEM-20, functional group 2be, LK-157 in combination constant 4 μg/mL",4 µg/mL
same,MIC,"[5]; functional group 2b, unknown, LK-157 in combination constant 4 μg/mL",4 µg/mL
same,MIC,"Escherichia coli TEM-50; Escherichia coli TEM-50, functional group 2be, LK-157 in combination constant 4 μg/mL",32 µg/mL
same,MIC,"Escherichia coli TEM-6; Escherichia coli TEM-6, functional group 2be, LK-157 in combination constant 4 μg/mL",4 µg/mL
same,MIC,"Proteus mirabilis TEM-52; Proteus mirabilis TEM-52, functional group 2be, LK-157 in combination constant 4 μg/mL",16 µg/mL
same,MIC,"[6]; Pseudomonas aeruginosa OXA-10, functional group 2d, LK-157 in combination constant 4 μg/mL",64 µg/mL
same,MIC,"Escherichia coli SHV-2; Escherichia coli SHV-2, functional group 2be, LK-157 in combination constant 4 μg/mL",2 µg/mL
same,MIC,"[7]; Klebsiella pneumoniae LAT-1, functional group 1, LK-157 in combination constant 4 μg/mL",0.125 µg/mL
same,MIC,"[8]; Pseudomonas aeruginosa PSE-1, functional group 2c, LK-157 in combination constant 4 μg/mL",32 µg/mL
same,MIC,"[9]; Pseudomonas aeruginosa LCR-1, functional group 2d, LK-157 in combination constant 4 μg/mL",128 µg/mL
same,MIC,"[10]; Klebsiella pneumoniae TEM-31, functional group 2br, LK-157 in combination constant 4 μg/mL",0.125 µg/mL
CO/N=C(\C(=O)N[C@@H]1C(=O)N2C(C(=O)O)=C(COC(C)=O)CS[C@H]12)c1csc(N)n1 [cefotaxime],MIC,E. coli SHV-5,> 25.6 µg/mL
same,susceptibility of the strain to the antibiotic,[11],susceptible
same,MIC,"[1]; Table 6, Pseudomonas aeruginosa NPS-1, LK-157 at constant 4 μg/mL in combination",16 µg/mL
same,MIC,"[2]; Table 6, Klebsiella pneumoniae TEM-30, LK-157 at constant 4 μg/mL in combination",0.031 µg/mL
same,MIC,"[4]; Table 6, Klebsiella pneumoniae TEM-1, SHV-5, LK-157 at constant 4 μg/mL in combination",32 µg/mL
same,MIC,"Escherichia coli TEM-34; Table 6, Escherichia coli TEM-34, LK-157 at constant 4 μg/mL in combination",0.031 µg/mL
same,MIC,"Salmonella spp. DHA-1; Table 6, Salmonella spp. DHA-1, LK-157 at constant 4 μg/mL in combination",32 µg/mL
same,MIC,[12],2 to 8 µg/mL
same,MIC,Escherichia coli OXA-1; [13],0.5 µg/mL
same,MIC,"Escherichia coli TEM-7; Table 6, Escherichia coli TEM-7, LK-157 at constant 4 μg/mL in combination",0.25 µg/mL
same,MIC,"Escherichia coli TEM-20; Table 6, Escherichia coli TEM-20, LK-157 at constant 4 μg/mL in combination",2 µg/mL
same,MIC,[5]; [13],4 µg/mL
same,MIC,"Escherichia coli TEM-50; Table 6, Escherichia coli TEM-50, LK-157 at constant 4 μg/mL in combination",8 µg/mL
same,MIC,"Escherichia coli TEM-6; Table 6, Escherichia coli TEM-6, LK-157 at constant 4 μg/mL in combination",0.5 µg/mL
same,MIC,"Proteus mirabilis TEM-52; Table 6, Proteus mirabilis TEM-52, LK-157 at constant 4 μg/mL in combination",16 µg/mL
same,MIC,"[6]; Table 6, Pseudomonas aeruginosa OXA-10, LK-157 at constant 4 μg/mL in combination",64 µg/mL
same,MIC,"Escherichia coli SHV-2; Table 6, Escherichia coli SHV-2, LK-157 at constant 4 μg/mL in combination",4 µg/mL
same,MIC,"[7]; Table 6, Klebsiella pneumoniae LAT-1, LK-157 at constant 4 μg/mL in combination",4 µg/mL
same,MIC,"[8]; Table 6, Pseudomonas aeruginosa PSE-1, LK-157 at constant 4 μg/mL in combination",16 µg/mL
same,MIC,"[9]; Table 6, Pseudomonas aeruginosa LCR-1, LK-157 at constant 4 μg/mL in combination",64 µg/mL
same,MIC,"[10]; Table 6, Klebsiella pneumoniae TEM-31, LK-157 at constant 4 μg/mL in combination",0.063 µg/mL
CC(C)(O/N=C(\C(=O)N[C@@H]1C(=O)N2C(C(=O)[O-])=C(C[n+]3ccccc3)CS[C@H]12)c1csc(N)n1)C(=O)O [ceftazidime],susceptibility of the strain to the antibiotic,[11],resistant
same,MIC,"Escherichia coli OXA-4; Table 7, Escherichia coli OXA-4, combination at constant concentration ratio (2:1)",0.5 µg/mL
same,MIC,"Escherichia coli TEM-32; Table 7, Escherichia coli TEM-32, combination at constant concentration ratio (2:1)",0.25 µg/mL
same,MIC,"[3]; Table 7, Aeromonas hydrophila AER-1, combination at constant concentration ratio (2:1)",0.25 µg/mL
same,MIC,[12],32 to 64 µg/mL
same,MIC,Escherichia coli OXA-1; [14],0.25 µg/mL
same,MIC,"Escherichia coli TEM-7; Table 7, Escherichia coli TEM-7, combination at constant concentration ratio (2:1)",32 µg/mL
same,MIC,"Escherichia coli TEM-20; Table 7, Escherichia coli TEM-20, combination at constant concentration ratio (2:1)",2 µg/mL
same,MIC,[5]; [14],8 µg/mL
same,MIC,"Escherichia coli TEM-50; Table 7, Escherichia coli TEM-50, combination at constant concentration ratio (2:1)",8 µg/mL
same,MIC,"Escherichia coli TEM-6; Table 7, Escherichia coli TEM-6, combination at constant concentration ratio (2:1)",≧128 μg/mL
same,MIC,"Proteus mirabilis TEM-52; Table 7, Proteus mirabilis TEM-52, combination at constant concentration ratio (2:1)",4 µg/mL
same,MIC,"[6]; Table 7, Pseudomonas aeruginosa OXA-10, combination at constant concentration ratio (2:1)",4 µg/mL
same,MIC,"Escherichia coli SHV-2; Table 7, Escherichia coli SHV-2, combination at constant concentration ratio (2:1)",2 µg/mL
same,MIC,"[7]; Table 7, Klebsiella pneumoniae LAT-1, combination at constant concentration ratio (2:1)",8 µg/mL
same,MIC,"[8]; Table 7, Pseudomonas aeruginosa PSE-1, combination at constant concentration ratio (2:1)",2 µg/mL
same,MIC,"[9]; Table 7, Pseudomonas aeruginosa LCR-1, combination at constant concentration ratio (2:1)",4 µg/mL
same,MIC,"[10]; Table 7, Klebsiella pneumoniae TEM-31, combination at constant concentration ratio (2:1)",0.25 µg/mL

# Reference: patent US20100029604A1, “ANTIBACTERIAL COMBINATION AND ITS USE” (priority 2007, published 2010)
